We go through six molecules from ChEMBL document CHEMBL1201862, “PubChem BioAssay data set” (2004).

The term EC50 denotes the midpoint of the concentration-response curve. The IC50 is the concentration needed to halve the response being measured. One may read the AC50 as the concentration at which the activity in the assay is half-maximal.

Calls of active or inactive are those of the source. Where only a bound is given, the exact number is not on record here.

Test [1] deals with Signal transducer and activator of transcription 3 (Homo sapiens, UniProt P40763). Kind of test: STAT3 activation with BCL3 mRNA and toxicity – cell-based, […], BCL3 qPCR, cytotoxicity, late-stage follow-up, panel member STAT3 Activation (AID 2049). In general terms: In qPCR the cycle at which signal appears reflects the starting amount.
Test [2] addresses Transitional endoplasmic reticulum ATPase (Homo sapiens, UniProt P55072, C522A). Kind of test: C522A mutant p97 ATPase inhibitors, dose response, counter-screen for p97 inhibitor project, biochemical, luminescence (AID 1544). For orientation: Counterscreens check selectivity or assay interference.
The target of test [3] is Transitional endoplasmic reticulum ATPase (Homo sapiens, UniProt P55072). Briefly: p97 ATPase inhibitors, dose response, biochemical (AID 1534).
Test [4] concerns the target T1, Heat shock factor protein 1 (Mus musculus, UniProt P38532).
T1 sequence (P38532 whole entry): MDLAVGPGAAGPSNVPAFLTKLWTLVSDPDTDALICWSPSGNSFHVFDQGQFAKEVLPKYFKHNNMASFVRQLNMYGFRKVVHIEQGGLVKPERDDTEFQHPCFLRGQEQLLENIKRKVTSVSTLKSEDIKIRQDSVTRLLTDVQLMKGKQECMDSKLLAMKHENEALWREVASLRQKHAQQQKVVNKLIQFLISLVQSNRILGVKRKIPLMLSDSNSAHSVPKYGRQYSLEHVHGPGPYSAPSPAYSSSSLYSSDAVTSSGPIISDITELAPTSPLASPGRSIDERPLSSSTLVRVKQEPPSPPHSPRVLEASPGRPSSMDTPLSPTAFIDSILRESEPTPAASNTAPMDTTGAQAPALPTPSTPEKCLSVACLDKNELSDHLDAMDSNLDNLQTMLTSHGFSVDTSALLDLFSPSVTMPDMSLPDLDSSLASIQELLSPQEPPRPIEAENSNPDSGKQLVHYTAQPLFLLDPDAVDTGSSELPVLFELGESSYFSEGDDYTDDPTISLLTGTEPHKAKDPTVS
Kind of test: enhancement of HSF1-driven luciferase signal – cell-based, NIH3T3, luminescence, dose retest, confirmation (AID 435004).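 Also: stress induced by proteasome inhibitor MG132 added 30 min after compound; luciferase reporter driven by HSF1 response element in NIH3T3 cells; actives raise luminescence as potentiators of the MG132 stress response.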 The format is functional.

Test [5] addresses T2, Replicative DNA helicase DnaB (Mycobacterium tuberculosis, UniProt P9WMR3).
T2 sequence (P9WMR3 whole entry): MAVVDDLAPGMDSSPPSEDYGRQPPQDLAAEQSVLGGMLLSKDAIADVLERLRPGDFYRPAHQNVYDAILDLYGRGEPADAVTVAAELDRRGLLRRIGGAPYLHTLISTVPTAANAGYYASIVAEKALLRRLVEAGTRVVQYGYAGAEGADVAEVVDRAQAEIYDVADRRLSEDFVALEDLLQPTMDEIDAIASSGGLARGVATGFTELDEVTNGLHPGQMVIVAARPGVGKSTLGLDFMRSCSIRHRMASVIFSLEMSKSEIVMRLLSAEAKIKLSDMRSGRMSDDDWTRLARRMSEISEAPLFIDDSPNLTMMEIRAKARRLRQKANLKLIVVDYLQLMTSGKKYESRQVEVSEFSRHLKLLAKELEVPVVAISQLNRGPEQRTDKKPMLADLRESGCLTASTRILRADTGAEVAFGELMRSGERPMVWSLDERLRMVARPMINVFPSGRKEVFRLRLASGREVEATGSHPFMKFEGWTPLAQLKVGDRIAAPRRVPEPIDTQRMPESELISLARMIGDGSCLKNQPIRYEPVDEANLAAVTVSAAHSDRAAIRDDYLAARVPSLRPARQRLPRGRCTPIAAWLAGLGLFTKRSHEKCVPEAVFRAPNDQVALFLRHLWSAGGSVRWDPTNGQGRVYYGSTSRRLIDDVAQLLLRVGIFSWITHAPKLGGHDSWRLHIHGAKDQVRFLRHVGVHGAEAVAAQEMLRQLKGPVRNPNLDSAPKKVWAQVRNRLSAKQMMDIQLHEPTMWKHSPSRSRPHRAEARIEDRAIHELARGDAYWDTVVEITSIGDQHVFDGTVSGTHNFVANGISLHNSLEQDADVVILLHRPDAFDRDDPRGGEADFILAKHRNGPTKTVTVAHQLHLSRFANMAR
Briefly: DnaB intein splicing inhibitors, dose response, biochemical, cell-free fluorescence (AID 449749). The format is functional.

The target of another test is T3, Protein RecA (Mycobacterium tuberculosis, UniProt P9WHJ3).
T3 sequence (P9WHJ3 whole entry): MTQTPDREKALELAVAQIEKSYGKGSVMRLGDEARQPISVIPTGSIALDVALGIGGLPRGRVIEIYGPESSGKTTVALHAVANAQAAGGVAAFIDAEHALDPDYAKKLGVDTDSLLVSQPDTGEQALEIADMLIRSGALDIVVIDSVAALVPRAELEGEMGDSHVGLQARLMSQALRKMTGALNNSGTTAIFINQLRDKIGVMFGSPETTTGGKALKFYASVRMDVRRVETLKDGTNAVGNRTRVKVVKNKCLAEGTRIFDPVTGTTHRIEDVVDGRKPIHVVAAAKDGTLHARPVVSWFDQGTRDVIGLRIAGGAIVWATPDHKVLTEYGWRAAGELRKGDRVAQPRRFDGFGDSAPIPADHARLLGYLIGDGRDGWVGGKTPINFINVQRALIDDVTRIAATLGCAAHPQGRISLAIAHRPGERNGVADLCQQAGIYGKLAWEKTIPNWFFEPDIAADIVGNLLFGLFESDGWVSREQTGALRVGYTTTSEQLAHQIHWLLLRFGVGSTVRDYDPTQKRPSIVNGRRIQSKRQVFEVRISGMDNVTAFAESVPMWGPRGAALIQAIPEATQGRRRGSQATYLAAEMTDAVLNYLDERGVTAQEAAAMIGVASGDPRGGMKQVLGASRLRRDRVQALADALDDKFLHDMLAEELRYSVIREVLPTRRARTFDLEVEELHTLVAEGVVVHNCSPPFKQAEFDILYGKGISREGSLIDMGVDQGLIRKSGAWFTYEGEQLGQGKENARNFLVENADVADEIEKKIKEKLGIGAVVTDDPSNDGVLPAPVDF
Briefly: Fluorescence Cell-Free Homogeneous Dose Retest to Identify Inhibitors of RecA-Intein Splicing Activity. [Related pubchem assays (depositor defined):AID2097, AID2223, AID489010, AID492950]. Type of test: functional.

Test [6] concerns the target Ras and Rab interactor 1/Tyrosine-protein kinase ABL1 (Homo sapiens, UniProt P00519+Q13671). The format is functional.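 Also: biochemical TR-FRET dose-response test measuring inhibition of binding between Rin1 and Abl proteins.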
In test [7] the target is T4, Methionyl-tRNA synthetase, putative (Trypanosoma brucei brucei, UniProt Q38C91).
T4 sequence (Q38C91 whole entry): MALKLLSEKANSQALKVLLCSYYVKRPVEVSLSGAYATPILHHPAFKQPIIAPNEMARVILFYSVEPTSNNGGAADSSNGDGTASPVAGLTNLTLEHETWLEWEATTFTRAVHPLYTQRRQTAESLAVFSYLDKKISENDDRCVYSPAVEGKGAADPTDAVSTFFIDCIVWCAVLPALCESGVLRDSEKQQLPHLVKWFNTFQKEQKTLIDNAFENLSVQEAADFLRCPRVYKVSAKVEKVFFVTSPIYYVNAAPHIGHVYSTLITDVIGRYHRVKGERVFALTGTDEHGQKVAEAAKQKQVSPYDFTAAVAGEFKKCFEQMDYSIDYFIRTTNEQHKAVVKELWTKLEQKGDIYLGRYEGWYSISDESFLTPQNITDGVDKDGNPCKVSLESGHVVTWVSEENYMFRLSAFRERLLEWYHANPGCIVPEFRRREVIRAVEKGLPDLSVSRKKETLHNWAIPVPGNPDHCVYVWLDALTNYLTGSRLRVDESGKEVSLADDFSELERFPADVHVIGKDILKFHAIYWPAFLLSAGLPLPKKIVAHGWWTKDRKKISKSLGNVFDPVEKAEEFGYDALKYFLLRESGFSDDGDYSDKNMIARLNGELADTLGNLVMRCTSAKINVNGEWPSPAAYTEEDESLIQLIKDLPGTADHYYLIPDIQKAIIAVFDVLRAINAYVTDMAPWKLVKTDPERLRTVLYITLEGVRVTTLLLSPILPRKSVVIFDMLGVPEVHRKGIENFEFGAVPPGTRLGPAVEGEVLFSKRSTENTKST
Type of test: functional, Trypanosoma brucei brucei strain 927/4 GUTat10.1.

Test [8] can be described thus: Counterscreen for inhibitors of Trypanosoma brucei methionyl tRNA synthetase (MetRS): Luminescence-based cell-based high throughput dose response assay to identify compounds that are cytotoxic to Jurkat human T lymphocyte cells. The format is functional.
Test [9] deals with T4, Methionyl-tRNA synthetase, putative. Type of test: functional, Trypanosoma brucei brucei strain 927/4 GUTat10.1. The source holds these as a separate data set.
The target of test [10] is E3 ubiquitin-protein ligase UHRF1 (Homo sapiens, UniProt Q96T88). Kind of test: Counterscreen for inhibitors of 5-meCpG-binding domain protein 2 (MBD2): TRFRET-based biochemical high throughput dose response assay to identify inhibitors of binding of ubiquitin-like with PHD and ring finger domains 1 (UHRF1) to methylated oligonucleotide.
Test [11] addresses Tyrosyl-DNA phosphodiesterase 2 (Homo sapiens, UniProt O95551). Briefly: potency against TDP2 phosphodiesterase activity – biochemical, epi absorbance, IC50, dose response (AID 743297).
Test [12] addresses Eukaryotic translation initiation factor 4H (Homo sapiens, UniProt Q15056). Kind of test: eIF4H binding inhibition – biochemical, uHTS, fluorescence polarization, translation initiation inhibitor project, primary screen (AID 2012). On the technique in general: In fluorescence polarisation assays a small probe gives low polarisation when free and higher when bound to something large.

The target in test [13] is Polyadenylate-binding protein 1 (Homo sapiens, UniProt P11940). Briefly: blockers of PABP interaction with poly(A) – biochemical, fluorescence polarization, […] (AID 2014).
The next test concerns the target Wee1-like protein kinase (Homo sapiens, UniProt P30291). Briefly: HeLa cell cycle G2/M accumulation – FACS, mechanism study for Wee1 degradation inhibitor project, late-stage follow-up, panel member Wee1 Degradation (AID 2088).
Test [14] has as its target G2/mitotic-specific cyclin-B1 (Homo sapiens, UniProt P14635). Briefly: HeLa cell cycle G2/M accumulation – FACS, mechanism study for Wee1 degradation inhibitor project, late-stage follow-up, panel member Cyclin B Degradation (AID 2088).
Test [15] concerns the target T5, Photoreceptor-specific nuclear receptor (Homo sapiens, UniProt Q9Y5X4). The format is functional, cell-based.
A short description of test [16]: viability loss in HEK293T cells – cell-based, cherry-picks, cytotoxicity control for HIV Vif inhibitor project, dose response (AID 652208). The format is functional.
Test [17] deals with T5, Photoreceptor-specific nuclear receptor. Type of test: functional.
The target in test [18] is Peroxisome proliferator-activated receptor gamma/Nuclear receptor corepressor 2 (Homo sapiens, UniProt P37231+Q9Y618). Type of test: functional.
A further test deals with Aspartyl aminopeptidase (Plasmodium falciparum 3D7, UniProt Q8I2J3).
The next test concerns the target Procathepsin L (Homo sapiens, UniProt P07711).

T5 sequence (Q9Y5X4 whole entry): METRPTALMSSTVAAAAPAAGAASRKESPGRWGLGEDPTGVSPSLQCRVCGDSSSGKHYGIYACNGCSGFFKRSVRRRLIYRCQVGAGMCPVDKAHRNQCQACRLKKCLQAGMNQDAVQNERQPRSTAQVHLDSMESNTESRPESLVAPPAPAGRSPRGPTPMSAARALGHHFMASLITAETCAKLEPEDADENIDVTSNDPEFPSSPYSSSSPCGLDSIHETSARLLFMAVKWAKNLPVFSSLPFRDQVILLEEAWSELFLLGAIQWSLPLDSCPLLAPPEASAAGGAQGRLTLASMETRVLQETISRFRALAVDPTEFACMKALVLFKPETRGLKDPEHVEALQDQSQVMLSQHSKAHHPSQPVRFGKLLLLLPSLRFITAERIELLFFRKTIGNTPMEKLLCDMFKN
Sequence of Transitional endoplasmic reticulum ATPase (Homo sapiens, UniProt P55072, C522A) (P55072 2-806 C522A limits assumed): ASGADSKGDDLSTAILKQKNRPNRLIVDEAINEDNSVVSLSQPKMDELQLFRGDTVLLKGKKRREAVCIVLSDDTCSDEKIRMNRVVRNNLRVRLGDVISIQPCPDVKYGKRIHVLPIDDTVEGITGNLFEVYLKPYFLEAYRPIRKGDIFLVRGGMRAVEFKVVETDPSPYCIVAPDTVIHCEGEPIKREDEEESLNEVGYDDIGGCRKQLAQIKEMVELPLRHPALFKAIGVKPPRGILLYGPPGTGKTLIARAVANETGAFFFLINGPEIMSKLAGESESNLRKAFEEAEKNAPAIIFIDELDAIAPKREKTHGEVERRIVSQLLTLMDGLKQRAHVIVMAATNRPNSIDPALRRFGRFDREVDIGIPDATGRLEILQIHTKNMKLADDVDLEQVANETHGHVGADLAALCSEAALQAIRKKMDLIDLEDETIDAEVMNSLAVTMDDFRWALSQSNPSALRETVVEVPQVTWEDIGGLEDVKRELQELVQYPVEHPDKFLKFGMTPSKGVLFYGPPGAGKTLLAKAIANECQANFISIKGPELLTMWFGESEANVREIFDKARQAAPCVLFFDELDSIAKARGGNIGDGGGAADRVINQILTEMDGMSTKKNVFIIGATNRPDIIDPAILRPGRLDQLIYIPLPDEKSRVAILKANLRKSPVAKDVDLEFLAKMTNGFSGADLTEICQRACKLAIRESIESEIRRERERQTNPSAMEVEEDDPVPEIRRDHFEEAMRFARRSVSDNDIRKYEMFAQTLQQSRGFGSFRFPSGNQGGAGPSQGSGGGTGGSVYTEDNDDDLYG
Sequence of Peroxisome proliferator-activated receptor gamma/Nuclear receptor corepressor 2 (P37231 whole entry): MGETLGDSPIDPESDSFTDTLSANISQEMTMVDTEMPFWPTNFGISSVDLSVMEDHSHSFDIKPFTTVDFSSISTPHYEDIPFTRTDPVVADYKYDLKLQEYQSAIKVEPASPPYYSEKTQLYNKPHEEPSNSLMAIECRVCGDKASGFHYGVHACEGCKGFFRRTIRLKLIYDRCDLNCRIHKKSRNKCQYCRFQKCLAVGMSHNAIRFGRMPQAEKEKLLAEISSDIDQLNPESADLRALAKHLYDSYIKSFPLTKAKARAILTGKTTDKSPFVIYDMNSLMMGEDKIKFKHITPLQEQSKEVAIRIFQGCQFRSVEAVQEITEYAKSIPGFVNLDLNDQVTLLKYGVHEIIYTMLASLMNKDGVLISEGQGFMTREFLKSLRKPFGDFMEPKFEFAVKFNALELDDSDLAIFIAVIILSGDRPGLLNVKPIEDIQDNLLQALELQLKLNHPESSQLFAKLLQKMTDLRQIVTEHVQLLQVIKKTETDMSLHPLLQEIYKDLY
Sequence of Peroxisome proliferator-activated receptor gamma/Nuclear receptor corepressor 2 (Q9Y618 whole entry): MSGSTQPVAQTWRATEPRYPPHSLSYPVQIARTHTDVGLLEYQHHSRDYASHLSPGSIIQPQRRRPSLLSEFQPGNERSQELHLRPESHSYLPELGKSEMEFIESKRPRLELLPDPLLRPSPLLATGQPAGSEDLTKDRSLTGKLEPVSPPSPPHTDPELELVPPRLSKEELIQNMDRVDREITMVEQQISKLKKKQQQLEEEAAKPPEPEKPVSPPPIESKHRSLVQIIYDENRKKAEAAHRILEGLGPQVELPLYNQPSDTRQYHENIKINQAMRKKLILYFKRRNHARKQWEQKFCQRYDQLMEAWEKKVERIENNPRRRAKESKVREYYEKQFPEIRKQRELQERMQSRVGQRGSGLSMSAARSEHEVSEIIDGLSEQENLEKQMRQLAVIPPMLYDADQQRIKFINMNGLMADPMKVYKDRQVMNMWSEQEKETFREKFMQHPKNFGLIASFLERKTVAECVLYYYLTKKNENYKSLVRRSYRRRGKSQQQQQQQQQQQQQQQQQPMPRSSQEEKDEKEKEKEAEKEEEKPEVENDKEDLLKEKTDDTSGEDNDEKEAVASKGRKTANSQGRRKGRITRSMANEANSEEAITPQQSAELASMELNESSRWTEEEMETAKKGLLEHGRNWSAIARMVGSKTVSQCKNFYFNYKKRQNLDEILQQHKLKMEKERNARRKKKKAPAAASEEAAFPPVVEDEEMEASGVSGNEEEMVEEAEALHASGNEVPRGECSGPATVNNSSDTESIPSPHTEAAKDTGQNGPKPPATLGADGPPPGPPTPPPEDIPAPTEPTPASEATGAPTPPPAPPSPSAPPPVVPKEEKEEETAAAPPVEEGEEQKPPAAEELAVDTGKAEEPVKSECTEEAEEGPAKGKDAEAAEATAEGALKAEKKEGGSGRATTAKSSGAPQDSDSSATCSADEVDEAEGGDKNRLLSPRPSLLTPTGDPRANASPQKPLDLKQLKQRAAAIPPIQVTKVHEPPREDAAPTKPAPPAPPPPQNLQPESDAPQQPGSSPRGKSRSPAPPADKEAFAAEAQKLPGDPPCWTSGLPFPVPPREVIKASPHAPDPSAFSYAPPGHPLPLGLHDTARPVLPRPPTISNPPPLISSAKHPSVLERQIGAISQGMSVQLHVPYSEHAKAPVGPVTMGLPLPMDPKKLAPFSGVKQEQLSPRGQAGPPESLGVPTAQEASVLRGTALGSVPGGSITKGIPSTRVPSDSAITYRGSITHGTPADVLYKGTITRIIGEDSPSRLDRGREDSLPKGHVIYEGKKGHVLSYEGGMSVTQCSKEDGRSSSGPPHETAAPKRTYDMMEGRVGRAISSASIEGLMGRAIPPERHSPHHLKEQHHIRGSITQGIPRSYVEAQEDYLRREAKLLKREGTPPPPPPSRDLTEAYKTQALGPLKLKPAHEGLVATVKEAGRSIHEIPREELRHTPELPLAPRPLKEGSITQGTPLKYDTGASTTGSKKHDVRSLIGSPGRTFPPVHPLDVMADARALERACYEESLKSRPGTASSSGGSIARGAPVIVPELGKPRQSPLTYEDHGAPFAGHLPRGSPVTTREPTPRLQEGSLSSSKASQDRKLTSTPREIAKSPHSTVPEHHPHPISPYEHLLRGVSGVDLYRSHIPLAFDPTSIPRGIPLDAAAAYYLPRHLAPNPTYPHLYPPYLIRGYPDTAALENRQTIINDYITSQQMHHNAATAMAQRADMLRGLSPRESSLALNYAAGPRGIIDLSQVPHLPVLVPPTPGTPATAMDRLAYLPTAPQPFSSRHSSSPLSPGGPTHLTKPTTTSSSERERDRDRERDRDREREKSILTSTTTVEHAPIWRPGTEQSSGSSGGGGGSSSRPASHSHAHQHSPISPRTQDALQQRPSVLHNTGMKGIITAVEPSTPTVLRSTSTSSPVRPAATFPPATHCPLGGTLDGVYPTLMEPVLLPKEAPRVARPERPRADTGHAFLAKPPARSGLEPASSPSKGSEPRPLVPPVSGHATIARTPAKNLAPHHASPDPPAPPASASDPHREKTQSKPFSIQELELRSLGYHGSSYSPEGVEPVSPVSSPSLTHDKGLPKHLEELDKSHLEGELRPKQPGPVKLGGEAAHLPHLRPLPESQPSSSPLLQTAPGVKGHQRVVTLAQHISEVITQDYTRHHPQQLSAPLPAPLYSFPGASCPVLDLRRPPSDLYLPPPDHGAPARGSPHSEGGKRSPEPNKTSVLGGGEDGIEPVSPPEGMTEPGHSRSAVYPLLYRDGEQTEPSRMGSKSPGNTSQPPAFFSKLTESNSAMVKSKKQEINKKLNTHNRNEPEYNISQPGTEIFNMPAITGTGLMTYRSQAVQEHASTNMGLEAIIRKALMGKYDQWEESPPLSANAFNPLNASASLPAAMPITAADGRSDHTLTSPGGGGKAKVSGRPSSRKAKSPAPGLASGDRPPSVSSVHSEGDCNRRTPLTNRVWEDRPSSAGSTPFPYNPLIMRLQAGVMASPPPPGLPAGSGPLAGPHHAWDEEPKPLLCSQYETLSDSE
Sequence of G2/mitotic-specific cyclin-B1 (P14635 whole entry): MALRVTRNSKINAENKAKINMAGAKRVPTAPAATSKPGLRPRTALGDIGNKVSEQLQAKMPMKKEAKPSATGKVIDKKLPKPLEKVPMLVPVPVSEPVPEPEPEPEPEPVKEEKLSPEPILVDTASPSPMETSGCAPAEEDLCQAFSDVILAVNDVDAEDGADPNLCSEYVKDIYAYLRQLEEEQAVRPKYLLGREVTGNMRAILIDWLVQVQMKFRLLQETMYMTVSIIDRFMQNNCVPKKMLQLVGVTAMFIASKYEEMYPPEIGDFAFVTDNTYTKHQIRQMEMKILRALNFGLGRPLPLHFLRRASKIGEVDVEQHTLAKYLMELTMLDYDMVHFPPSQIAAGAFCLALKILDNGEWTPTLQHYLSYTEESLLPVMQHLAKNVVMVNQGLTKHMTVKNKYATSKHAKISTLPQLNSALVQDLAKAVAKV

Regarding `COc1cc(OC)c(NC(=O)c2cc(CN3CCCC3)on2)cc1Cl`, in test [1], the EC50 is > 55.7 µM (inactive).
Consider `O=S(=O)(Nc1cc2nc3ccccc3nc2n1Cc1ccccc1)c1ccc(Cl)cc1`, for which the half-maximal inhibitory concentration (IC50) was > 50 µM (not active) in [2]; > 50 µM (not active) in test [3]; > 73.5 µM (inactive) in test [6]; 4.93 µM (active) in test [7]; 28.8 µM (inactive) in [8]; 2.46 µM (active) in [9]. Also, the IC50 in [10] was > 43.8 µM (inactive); in test [11], > 14.3 µM (inactive). Further, the values for the EC50 (in test [4]; on Protein RecA) were > 260 µM (inactive) and 1.5 µM (active), respectively. Also, the AC50 in test [5] is 10.1 µM (active).
Take `CCN(CC)CCCN=C1N[C@@H](c2ccccc2)C(C(=O)OC)=C(C)N1CC`: the IC50 in [12] is > 100 µM (inactive); in test [13], 10.6 µM (active).
As to `Cc1ccnc(NC(=O)CCCOc2cc(=O)n(C)c3ccccc23)c1`, the values for the half-maximal effective concentration (EC50) (on Wee1-like protein kinase; in test [14]) were > 6.19 µM (active) and > 55.7 µM (inactive), respectively. For the same molecule, the IC50 in test [15] is 2.97 µM (active). The AC50 in [16] was > 52 µM (inactive).
Regarding `O=C(C1=C(O)C(=O)N(CC2CCCO2)C1c1ccc(Cl)cc1Cl)c1ccco1` (configuration not stated), the figures for the 50% inhibitory concentration (IC50) in test [17] and in test [18] were > 39.8 µM (not active) and 13.7 µM (not active), respectively.
Regarding `O=C(NC(=S)Nn1cnnc1)c1ccccc1Br`, the results for the half-inhibitory concentration (IC50) at Aspartyl aminopeptidase and against Procathepsin L were 1.5 µM (active) and > 59.6 µM (not active), respectively.
